Data set [1] in a line: in vitro. Particulars: human.
The test system of data set [2] is influenza virus (A/WSN/33). As to the kind of experiment: microbe, parasite or virus in culture. The settings on record: for IC50: unidentified influenza virus, WSN, MDCK, 24 h, read-out: Viral Yield Reduction Assay IC50. The class given is cell-based.
Data set [3] can be described thus: in vitro. The settings on record: dog.
The target in another data set is influenza RNP (Influenza A virus, UniProt P15659). Kind of data set: cell-based.
Data set [4] addresses PAC (C-terminal domain of PA, residues 256–716 of A/WSN/33) (Influenza A virus, UniProt P15659). Kind of data set: biochemical. The class given is binding, influenza A/WSN/33.

In general, IC50 refers to the point on the concentration scale where inhibition reaches its midpoint. The term Kd denotes the concentration at which binding is half-saturated.

Where only a bound is given, the exact number is not on record here.

As to `O=c1c2ccccc2nc(NCCN2CCNCC2)n1-c1ccccc1` [Compound S1a, 2-[(2-(Piperazino)ethyl)amino]-3-phenylquinazolin-4(3H)-one], in “in vitro [1]”, the CC50 at 24 h was > 100 µM.
On to `Cc1ccccc1-n1c(NCCCN2CCOCC2)nc2ccccc2c1=O` [Compound S1b, 2-[(3-Morpholinopropyl)amino]-3-(2-methylphenyl)quinazolin-4(3H)-one], for which the CC50 at 24 h in “in vitro [1]” and in “in vitro [3]” was > 100 µM in each case. Also, the IC50 was > 100 µM in data set [2] and 87.8 ± 21.8 µM against influenza RNP.
Take `Cc1ccc(-n2c(NCCCN3CCOCC3)nc3ccccc3c2=O)cc1` [Compound S1c, 2-[(3-Morpholinopropyl)amino]-3-(4-methylphenyl)quinazolin-4(3H)-one]: the CC50 at 24 h in the data set “in vitro [1]” is > 100 µM.
The same measure, in the same setting: the figure for `O=c1c2ccccc2nc(NCCCN2CCOCC2)n1-c1ccc(F)cc1` [Compound S1d, 3-(4-Fluorophenyl)-2-((3-morpholinopropyl)amino)quinazolin-4(3H)-one] is > 100 µM.
`O=c1c2c(O)c(Cc3ccccc3)c(=O)n(CCO)c2n(-c2ccccc2)c(=O)n1-c1ccccc1` [Compound S2a, 6-benzyl-5-hydroxy-8-(2-hydroxyethyl)-1,3-diphenylpyrido[2,3-d]pyrimidine-2,4,7(1H,3H,8H)-trione]: the CC50 at 24 h is 84.6 ± 17.3 µM in “in vitro [1]” and > 100 µM in the data set “in vitro [3]”. The compound also came in with a Kd in data set [4] of 1.77 ± 0.78 µM. Also, the “cytotoxicity in MDCK cells (in words)” value in the data set on MDCK cells is “slight cytotoxicity at their highest tested concentration”. The “inhibition of influenza viral yield (in words)” value (“inhibition” for short) in data set [2] is on record as “dose-dependent inhibition of influenza virus”. In addition, the values for the IC50 (in data set [2]; at influenza RNP) were 7.74 ± 6.02 µM and 9.69 ± 3 µM, respectively.
With `CC(c1ccccc1)c1c(O)c2c(=O)n(-c3ccccc3)c(=O)n(-c3ccccc3)c2[nH]c1=O` (centres unmarked) [Compound S2b, 5-hydroxy-1,3-diphenyl-6-(1-phenylethyl)pyrido[2,3-d]pyrimidine-2,4,7(1H,3H,8H)-trione], the values for the CC50 at 24 h in the data set “in vitro [1]” and in “in vitro [3]” were > 100 µM and 42.8 ± 9 µM, respectively. In data set [4], this compound returned a Kd of 16.2 ± 8.3 µM. The “inhibition” value in data set [2] is “dose-dependent inhibition of influenza virus”. Also, the IC50 came out at 4.96 ± 3.84 µM in data set [2] and 14.2 ± 3.6 µM at influenza RNP.
Compound `CC(c1ccccc1)c1c(O)c2c(=O)n(-c3ccccc3)c(=O)n(-c3ccccc3)c2n(C)c1=O` (centres unmarked) [Compound S2c, 5-hydroxy-8-methyl-1,3-diphenyl-6-(1-phenylethyl)pyrido[2,3-d]pyrimidine-2,4,7(1H,3H,8H)-trione] displayed a CC50 at 24 h in the data set “in vitro [1]” of 97.1 ± 16.1 µM.
Consider `COc1c(C(C)c2ccccc2)c(=O)n(C)c2c1c(=O)n(-c1ccccc1)c(=O)n2-c1ccccc1` (centres unmarked) [Compound S2d, 5-methoxy-8-methyl-1,3-diphenyl-6-(1-phenylethyl)pyrido[2,3-d]pyrimidine-2,4,7(1H,3H,8H)-trione], for which the CC50 at 24 h in the data set “in vitro [1]” is 66.6 ± 6.09 µM; in the data set “in vitro [3]” it was 35.6 ± 9.24 µM. Moreover, in data set [4], the Kd was > 25 µM. For the same compound, the “inhibition” value in data set [2] was “dose-dependent inhibition of influenza virus”. In addition, the IC50 in data set [2] is 3.18 ± 2.44 µM; on influenza RNP, > 12.5 µM.
In the case of `CC(=O)n1c(=O)c(C(C)c2ccccc2)c(O)c2c(=O)n(-c3ccccc3)c(=O)n(-c3ccccc3)c21` (centres unmarked) [Compound S2e, 8-acetyl-5-hydroxy-1,3-diphenyl-6-(1-phenylethyl)pyrido[2,3-d]pyrimidine-2,4,7(1H,3H,8H)-trione], the CC50 at 24 h in the data set “in vitro [1]” is > 100 µM; in the data set “in vitro [3]” it was 53.1 ± 9.25 µM. The same compound returned a Kd in data set [4] of 50.9 ± 25.5 µM. In data set [2], the “inhibition” value is on record as “dose-dependent inhibition of influenza virus”. In addition, the IC50 in data set [2] is 5.11 ± 4.22 µM; at influenza RNP, 6.69 ± 7.49 µM.
As for `Cn1c(=O)c(Nc2ccccc2)c(O)c2c(=O)n(-c3ccccc3)c(=O)n(-c3ccccc3)c21` [Compound S2f, 5-hydroxy-8-methyl-1,3-diphenyl-6-(phenylamino)pyrido[2,3-d]pyrimidine-2,4,7(1H,3H,8H)-trione], the CC50 at 24 h in “in vitro [1]” and in “in vitro [3]” was > 100 µM throughout. The “inhibition” value in data set [2] is “inability to attenuate influenza virus”. In addition, the IC50 in data set [2] was > 100 µM; at influenza RNP it was 62.4 ± 22.4 µM.

(Values after article PMC5797126, “Identification of influenza polymerase inhibitors targeting C-terminal domain of PA through surface plasmon resonance screening” (Scientific Reports, 2018).)
